Data published in patent publication US11981658B2, “Substituted aminopyridine compounds as EGFR inhibitors” (YUHAN CORPORATION, priority 2021, dated 2024).
Counter-ions that a name gives are not always drawn. Like-named read-outs stand apart in the source and are kept apart here.

Columns and labels:
[1] = target: EGFR Del19/T790M/C797S (Homo sapiens, UniProt P00533, C797S/DEL746-750/T790M); test: Biochemical EGFR kinase inhibition assay (Lance Ultra TR-FRET), triple mutant del19/T790M/C797S
Outline: (§1)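 Enzyme reactions lasted 1 hour at room temperature with test compounds between 0.003 and 10 μM, followed by 10 mM EDTA quench.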

[2] = target: EGFR wildtype (WT) (Homo sapiens, UniProt P00533); test: Biochemical EGFR kinase inhibition assay (Lance Ultra TR-FRET), wildtype
Chain of EGFR wildtype (WT) (P00533 25-1210): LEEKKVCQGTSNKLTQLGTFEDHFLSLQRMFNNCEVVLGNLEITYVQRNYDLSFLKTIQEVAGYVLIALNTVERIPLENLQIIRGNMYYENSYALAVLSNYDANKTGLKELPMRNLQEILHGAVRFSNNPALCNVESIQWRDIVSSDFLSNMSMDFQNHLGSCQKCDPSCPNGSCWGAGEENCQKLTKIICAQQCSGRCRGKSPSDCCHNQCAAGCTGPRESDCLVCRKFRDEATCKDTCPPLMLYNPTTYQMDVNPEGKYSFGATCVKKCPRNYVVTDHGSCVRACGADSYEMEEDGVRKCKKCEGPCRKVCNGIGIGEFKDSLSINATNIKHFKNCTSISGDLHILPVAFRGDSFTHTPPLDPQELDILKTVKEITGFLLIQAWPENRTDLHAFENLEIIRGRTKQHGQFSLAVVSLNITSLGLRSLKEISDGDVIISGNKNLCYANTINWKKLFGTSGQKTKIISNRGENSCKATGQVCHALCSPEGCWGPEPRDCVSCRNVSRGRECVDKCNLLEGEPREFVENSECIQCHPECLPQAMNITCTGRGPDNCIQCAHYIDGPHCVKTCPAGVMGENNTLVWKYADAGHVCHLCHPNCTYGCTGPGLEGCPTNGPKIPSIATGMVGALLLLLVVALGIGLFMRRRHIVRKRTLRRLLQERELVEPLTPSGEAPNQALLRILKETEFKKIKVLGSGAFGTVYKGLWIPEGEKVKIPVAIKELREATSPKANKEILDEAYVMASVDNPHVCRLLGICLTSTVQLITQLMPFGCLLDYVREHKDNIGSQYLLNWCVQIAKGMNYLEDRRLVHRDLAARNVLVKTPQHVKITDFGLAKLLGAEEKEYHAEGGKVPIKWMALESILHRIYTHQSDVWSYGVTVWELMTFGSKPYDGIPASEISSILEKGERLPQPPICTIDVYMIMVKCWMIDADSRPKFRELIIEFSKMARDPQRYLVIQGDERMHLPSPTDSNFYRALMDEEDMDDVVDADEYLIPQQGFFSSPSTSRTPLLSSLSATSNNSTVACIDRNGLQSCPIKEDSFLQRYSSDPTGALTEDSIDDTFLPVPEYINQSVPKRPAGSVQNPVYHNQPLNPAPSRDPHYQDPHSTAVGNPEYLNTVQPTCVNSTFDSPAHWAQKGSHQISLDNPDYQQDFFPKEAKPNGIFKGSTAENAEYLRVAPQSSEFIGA
Outline: as §1

[3] = target: EGFR L858R/T790M/C797S (Homo sapiens, UniProt P00533, C797S/L858R/T790M); test: Biochemical EGFR kinase inhibition assay (Lance Ultra TR-FRET), triple mutant L858R/T790M/C797S
Chain of EGFR L858R/T790M/C797S (P00533 25-1210 T790M/C797S/L858R): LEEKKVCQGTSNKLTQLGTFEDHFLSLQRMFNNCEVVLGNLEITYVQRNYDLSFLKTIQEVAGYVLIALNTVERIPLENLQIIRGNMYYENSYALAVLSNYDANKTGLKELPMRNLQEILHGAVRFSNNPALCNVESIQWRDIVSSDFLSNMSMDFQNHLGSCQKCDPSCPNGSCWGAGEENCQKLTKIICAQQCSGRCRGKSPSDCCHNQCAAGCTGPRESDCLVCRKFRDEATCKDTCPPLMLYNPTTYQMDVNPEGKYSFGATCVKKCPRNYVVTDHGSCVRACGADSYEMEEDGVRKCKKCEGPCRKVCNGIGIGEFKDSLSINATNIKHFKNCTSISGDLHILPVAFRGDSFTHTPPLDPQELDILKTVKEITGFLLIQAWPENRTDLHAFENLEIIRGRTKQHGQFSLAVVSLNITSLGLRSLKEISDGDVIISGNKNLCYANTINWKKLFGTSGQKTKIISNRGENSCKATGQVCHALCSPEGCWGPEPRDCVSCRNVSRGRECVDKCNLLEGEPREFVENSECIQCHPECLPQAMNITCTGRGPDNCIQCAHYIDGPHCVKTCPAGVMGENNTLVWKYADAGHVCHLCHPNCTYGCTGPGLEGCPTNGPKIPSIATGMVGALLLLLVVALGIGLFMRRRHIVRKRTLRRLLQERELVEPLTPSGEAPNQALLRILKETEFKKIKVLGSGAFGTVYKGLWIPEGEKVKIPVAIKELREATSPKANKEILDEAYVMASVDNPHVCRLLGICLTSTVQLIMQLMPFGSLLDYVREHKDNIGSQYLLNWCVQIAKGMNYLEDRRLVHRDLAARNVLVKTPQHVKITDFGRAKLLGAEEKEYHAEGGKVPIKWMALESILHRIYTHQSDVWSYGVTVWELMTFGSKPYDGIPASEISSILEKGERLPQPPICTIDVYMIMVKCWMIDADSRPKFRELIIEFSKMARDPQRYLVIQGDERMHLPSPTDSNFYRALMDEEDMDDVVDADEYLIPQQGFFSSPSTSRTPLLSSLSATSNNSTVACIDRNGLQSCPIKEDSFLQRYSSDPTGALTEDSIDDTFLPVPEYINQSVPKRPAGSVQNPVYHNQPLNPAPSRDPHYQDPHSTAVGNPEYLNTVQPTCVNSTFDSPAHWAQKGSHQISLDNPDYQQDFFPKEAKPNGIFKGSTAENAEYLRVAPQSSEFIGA
Outline: as §1

[4] = target: EGFR L858R/C797S (Homo sapiens, UniProt P00533, C797S/L858R); test: Biochemical EGFR kinase inhibition assay (Lance Ultra TR-FRET), double mutant L858R/C797S
Chain of EGFR L858R/C797S (P00533 25-1210 C797S/L858R): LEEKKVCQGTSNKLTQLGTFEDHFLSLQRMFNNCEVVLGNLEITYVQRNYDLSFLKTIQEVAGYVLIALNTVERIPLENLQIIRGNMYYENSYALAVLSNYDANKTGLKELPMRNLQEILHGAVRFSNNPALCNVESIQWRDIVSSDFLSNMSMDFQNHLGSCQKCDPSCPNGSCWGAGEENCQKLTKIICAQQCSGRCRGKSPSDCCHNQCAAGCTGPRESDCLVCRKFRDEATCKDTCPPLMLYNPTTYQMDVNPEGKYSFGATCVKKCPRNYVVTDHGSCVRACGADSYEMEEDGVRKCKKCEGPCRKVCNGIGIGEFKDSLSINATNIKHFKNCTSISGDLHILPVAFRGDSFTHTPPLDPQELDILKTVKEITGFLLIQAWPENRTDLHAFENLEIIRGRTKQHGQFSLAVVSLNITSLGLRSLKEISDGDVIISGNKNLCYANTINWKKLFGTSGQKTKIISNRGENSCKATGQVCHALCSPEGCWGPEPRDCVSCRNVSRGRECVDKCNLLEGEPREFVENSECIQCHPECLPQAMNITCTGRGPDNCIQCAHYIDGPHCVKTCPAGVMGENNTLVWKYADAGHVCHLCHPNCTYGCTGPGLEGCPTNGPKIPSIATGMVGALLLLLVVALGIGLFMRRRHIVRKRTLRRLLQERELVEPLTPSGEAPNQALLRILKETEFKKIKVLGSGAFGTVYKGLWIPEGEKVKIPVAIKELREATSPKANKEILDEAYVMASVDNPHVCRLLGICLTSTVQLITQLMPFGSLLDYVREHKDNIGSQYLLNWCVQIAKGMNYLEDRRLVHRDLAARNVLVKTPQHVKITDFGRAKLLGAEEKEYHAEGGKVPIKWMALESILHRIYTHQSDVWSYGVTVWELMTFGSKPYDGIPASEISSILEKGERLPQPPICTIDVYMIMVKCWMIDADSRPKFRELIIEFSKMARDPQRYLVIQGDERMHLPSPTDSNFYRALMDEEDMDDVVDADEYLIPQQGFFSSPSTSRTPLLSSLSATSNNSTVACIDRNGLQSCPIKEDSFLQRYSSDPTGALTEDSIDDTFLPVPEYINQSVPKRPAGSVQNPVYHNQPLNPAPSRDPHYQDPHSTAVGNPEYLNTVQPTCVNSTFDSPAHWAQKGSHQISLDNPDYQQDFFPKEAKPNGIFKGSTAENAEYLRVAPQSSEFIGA
Outline: as §1

[5] = target: EGFR Del19/C797S (Homo sapiens, UniProt P00533, C797S/DEL746-750); test: Biochemical EGFR kinase inhibition assay (Lance Ultra TR-FRET), double mutant del19/C797S
Outline: as §1

[6] = ATP at Km, read-out: IC50 Del19/T790M/C797S (nM), Km ATP
[7] = IC50 Del19/T790M/C797S (nM), 100 μM ATP
[8] = ATP at Km, read-out: IC50 WT (nM), Km ATP
[9] = ATP at Km, read-out: IC50 L858R/T790M/C797S (nM), Km ATP
[10] = IC50 L858R/T790M/C797S (nM), 100 μM ATP
[11] = ATP at Km, read-out: IC50 L858R/C797S (nM), Km ATP
[12] = IC50 L858R/C797S (nM), 100 μM ATP
[13] = ATP at Km, read-out: IC50 Del19/C797S (nM), Km ATP
[14] = IC50 Del19/C797S (nM), 100 μM ATP

Chain of EGFR Del19/T790M/C797S (P00533 with tags, fused parts or gaps DEL746-750/T790M/C797S): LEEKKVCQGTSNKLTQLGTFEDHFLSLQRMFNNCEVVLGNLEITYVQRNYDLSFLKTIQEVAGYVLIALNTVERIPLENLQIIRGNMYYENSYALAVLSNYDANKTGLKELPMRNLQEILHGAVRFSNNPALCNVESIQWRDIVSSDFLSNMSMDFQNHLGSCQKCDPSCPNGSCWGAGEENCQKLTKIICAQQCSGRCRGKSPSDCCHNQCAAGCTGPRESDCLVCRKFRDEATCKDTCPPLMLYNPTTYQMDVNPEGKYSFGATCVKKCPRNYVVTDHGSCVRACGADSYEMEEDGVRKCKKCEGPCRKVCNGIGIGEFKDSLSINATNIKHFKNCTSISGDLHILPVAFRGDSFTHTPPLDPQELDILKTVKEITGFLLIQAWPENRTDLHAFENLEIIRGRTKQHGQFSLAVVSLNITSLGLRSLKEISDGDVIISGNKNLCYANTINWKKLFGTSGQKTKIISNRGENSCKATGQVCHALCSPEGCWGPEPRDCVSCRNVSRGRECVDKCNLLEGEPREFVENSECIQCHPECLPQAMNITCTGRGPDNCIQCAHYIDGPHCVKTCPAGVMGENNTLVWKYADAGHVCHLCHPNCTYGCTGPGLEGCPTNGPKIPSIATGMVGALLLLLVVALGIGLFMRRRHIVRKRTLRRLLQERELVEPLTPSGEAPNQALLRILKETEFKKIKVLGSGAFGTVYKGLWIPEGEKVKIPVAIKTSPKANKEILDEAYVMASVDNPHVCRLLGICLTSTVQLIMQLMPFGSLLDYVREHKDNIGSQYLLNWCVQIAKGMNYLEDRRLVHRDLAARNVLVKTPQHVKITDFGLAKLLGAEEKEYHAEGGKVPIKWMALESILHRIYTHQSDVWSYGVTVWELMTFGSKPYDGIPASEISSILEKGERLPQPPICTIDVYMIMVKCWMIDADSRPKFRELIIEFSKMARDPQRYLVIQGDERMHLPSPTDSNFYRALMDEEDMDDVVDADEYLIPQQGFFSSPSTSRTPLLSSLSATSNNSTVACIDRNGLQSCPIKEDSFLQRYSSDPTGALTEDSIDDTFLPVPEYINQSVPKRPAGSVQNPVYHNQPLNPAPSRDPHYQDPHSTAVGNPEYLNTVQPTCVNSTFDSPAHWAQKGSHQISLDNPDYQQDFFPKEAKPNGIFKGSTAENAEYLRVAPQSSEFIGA

SMILES | IC50 [1, 6] [nM] | IC50 [1, 7] [nM] | IC50 [2, 8] [nM] | IC50 ([2]; IC50 WT (nM), 100 μM ATP) [nM] | IC50 [3, 9] [nM] | IC50 [3, 10] [nM] | IC50 [4, 11] [nM] | IC50 [4, 12] [nM] | IC50 [5, 13] [nM] | IC50 [5, 14] [nM]
CN1CCN(Cc2ccc(C#Cc3cnc(Nc4ccnc(-c5cnn(S(=O)(=O)C6CC6)c5)n4)cc3N3CCC(C)(CO)CC3)cn2)CC1 [Example 279, (1-(2-((2-(1-(Cyclopropylsulfonyl)-1H-pyrazol-4-yl)pyrimidin-4-yl)amino)-5-((6-((4-methylpiperazin-1-yl)methyl)pyridin-3-yl)ethynyl)pyridin-4-yl)-4-methylpiperidin-4-yl)methanol] | 0.6 | 0.7 | 0.6 | 111 | 0.1 | 0.5 | 0.6 | 0.6 | 0.2 | 0.6
CC1(O)CCN(c2cc(Nc3ccnc(-c4cnn(S(=O)(=O)C5CC5)c4)n3)ncc2C#Cc2cccnc2)CC1 [Example 280, 1-(2-((2-(1-(Cyclopropylsulfonyl)-1H-pyrazol-4-yl)pyrimidin-4-yl)amino)-5-(pyridin-3-ylethynyl)pyridin-4-yl)-4-methylpiperidin-4-ol] | 0.5 | 0.3 | 3.5 | > 10000 | 0.4 | 0.6 | 0.6 | 6.3 | 0.3 | 0.5
COC1(C)CCN(c2cc(Nc3ccnc(-c4cnn(S(=O)(=O)C5CC5)c4)n3)ncc2C#Cc2cccnc2)CC1 [Example 281, 2-(1-(Cyclopropylsulfonyl)-1H-pyrazol-4-yl)-N-(4-(4-methoxy-4-methylpiperidin-1-yl)-5-(pyridin-3-ylethynyl)pyridin-2-yl)pyrimidin-4-amine] | 10.2 | 82.1 | 192 | > 10000 |  | 22 | 6.3 | 287 | 17 | 88.5
O=S(=O)(C1CC1)n1cc(-c2nccc(Nc3cc(N4CCC5(CCCO5)CC4)c(C#Cc4cccnc4)cn3)n2)cn1 [Example 282, 2-(1-(Cyclopropylsulfonyl)-1H-pyrazol-4-yl)-N-(5-(pyridin-3-ylethynyl)-4-(1-oxa-8-azaspiro[4.5]decan-8-yl)pyridin-2-yl)pyrimidin-4-amine] | 5.5 | 23.8 | 50.7 | > 10000 |  | 7.1 | 4.2 | 39.2 | 8.3 | 28.6
O=S(=O)(C1CC1)n1cc(-c2nccc(Nc3cc(N4CCC5(CCO5)CC4)c(C#Cc4cccnc4)cn3)n2)cn1 [Example 283, 2-(1-(Cyclopropylsulfonyl)-1H-pyrazol-4-yl)-N-(5-(pyridin-3-ylethynyl)-4-(1-oxa-7-azaspiro[3.5]nonan-7-yl)pyridin-2-yl)pyrimidin-4-amine] | 2 | 9.5 | 16.2 | > 10000 |  | 3 | 1.9 | 11.2 | 3.1 | 7.9
CC(C)(O)CC#Cc1cnc(Nc2ccnc(-c3cnn(S(=O)(=O)C4CC4)c3)n2)cc1N1CCC(C)(CO)CC1 [Example 284, 5-(6-((2-(1-(Cyclopropylsulfonyl)-1H-pyrazol-4-yl)pyrimidin-4-yl)amino)-4-(4-(hydroxymethyl)-4-methylpiperidin-1-yl)pyridin-3-yl)-2-methylpent-4-yn-2-ol] | 1.1 | 4.4 | 12.6 | 7270 |  | 1.7 | 1.7 | 15.9 | 2.8 | 6.8
CC1(CO)CCN(c2cc(Nc3ccnc(-c4cnn(S(=O)(=O)C5CC5)c4)n3)ncc2C#CCCN2CCOCC2)CC1 [Example 285, (1-(2-((2-(1-(Cyclopropylsulfonyl)-1H-pyrazol-4-yl)pyrimidin-4-yl)amino)-5-(4-morpholinobut-1-yn-1-yl)pyridin-4-yl)-4-methylpiperidin-4-yl)methanol] | 0.8 | 1 | 2.5 | 1250 | 0.4 | 0.6 | 0.1 | 1.3 | 0.4 | 1.1
CC1(CO)CCN(c2cc(Nc3ccnc(-c4cnn(S(=O)(=O)C5CC5)c4)n3)ncc2C#CCC2(O)COC2)CC1 [Example 286, 3-(3-(6-((2-(1-(Cyclopropylsulfonyl)-1H-pyrazol-4-yl)pyrimidin-4-yl)amino)-4-(4-(hydroxymethyl)-4-methylpiperidin-1-yl)pyridin-3-yl)prop-2-yn-1-yl)oxetan-3-ol] |  | 0.1 |  | 4300 |  | 0.4 |  | 13.5 |  | 2.2
CC(O)CC#Cc1cnc(Nc2ccnc(-c3cnn(S(=O)(=O)C4CC4)c3)n2)cc1N1CCC(C)(CO)CC1 (stereo not shown) [Example 287, 5-(6-((2-(1-(Cyclopropylsulfonyl)-1H-pyrazol-4-yl)pyrimidin-4-yl)amino)-4-(4-(hydroxymethyl)-4-methylpiperidin-1-yl)pyridin-3-yl)pent-4-yn-2-ol] |  | 0.1 |  | 3190 |  | 0.3 |  | 8.9 |  | 1.6
CC1(CO)CCN(c2cc(Nc3ccnc(-c4cnn(S(=O)(=O)C5CC5)c4)n3)ncc2C#CCNC(=O)C(F)(F)F)CC1 [Example 288, N-(3-(6-((2-(1-(Cyclopropylsulfonyl)-1H-pyrazol-4-yl)pyrimidin-4-yl)amino)-4-(4-(hydroxymethyl)-4-methylpiperidin-1-yl)pyridin-3-yl)prop-2-yn-1-yl)-2,2,2-trifluoroacetamide] |  | 0.2 |  | 7820 |  | 0.2 |  | 21.6 |  | 3.6
CC1(CO)CCN(c2cc(Nc3ccnc(-c4cnn(S(=O)(=O)C5CC5)c4)n3)ncc2C#CCN2CCS(=O)(=O)CC2)CC1 [Example 289, 4-(3-(6-((2-(1-(Cyclopropylsulfonyl)-1H-pyrazol-4-yl)pyrimidin-4-yl)amino)-4-(4-(hydroxymethyl)-4-methylpiperidin-1-yl)pyridin-3-yl)prop-2-yn-1-yl)thiomorpholine 1,1-dioxide] |  | 0.2 |  | 8440 |  | 0.9 |  | 23.1 |  | 3
CC1(CO)CCN(c2cc(Nc3ccnc(-c4cnn(S(=O)(=O)C5CC5)c4)n3)ncc2C#Cc2cc(C(F)(F)F)n[nH]2)CC1 [Example 290, (1-(2-((2-(1-(Cyclopropylsulfonyl)-1H-pyrazol-4-yl)pyrimidin-4-yl)amino)-5-((3-(trifluoromethyl)-1H-pyrazol-5-yl)ethynyl)pyridin-4-yl)-4-methylpiperidin-4-yl)methanol] |  | 5.7 |  | > 10000 |  | 8.6 |  | > 10000 |  | 26.2
CC1(CO)CCN(c2cc(Nc3ccnc(-c4cnn(S(=O)(=O)C5CC5)c4)n3)ncc2C#Cc2nc(C(F)(F)F)cs2)CC1 [Example 291, (1-(2-((2-(1-(Cyclopropylsulfonyl)-1H-pyrazol-4-yl)pyrimidin-4-yl)amino)-5-((4-(trifluoromethyl)thiazol-2-yl)ethynyl)pyridin-4-yl)-4-methylpiperidin-4-yl)methanol] | 4.5 | 7.4 | 615 | > 10000 | 3.6 | 14.9 | 36.7 | 383 | 8.9 | 22.5
CC1(CO)CCN(c2cc(Nc3ccnc(-c4cnn(S(=O)(=O)C5CC5)c4)n3)ncc2C#Cc2cnc(C(F)(F)F)s2)CC1 [Example 292, (1-(2-((2-(1-(Cyclopropylsulfonyl)-1H-pyrazol-4-yl)pyrimidin-4-yl)amino)-5-((2-(trifluoromethyl)thiazol-5-yl)ethynyl)pyridin-4-yl)-4-methylpiperidin-4-yl)methanol] | 4.9 | 2.2 | 101 | > 10000 | 2.4 | 4.2 | 38.7 | 146 | 12.2 | 10.4
CN(C)CC1(F)CCN(c2cc(Nc3ccnc(-c4cnn(S(=O)(=O)C5CC5)c4)n3)ncc2C#Cc2cnn(C)c2)CC1 [Example 293, 2-(1-(Cyclopropylsulfonyl)-1H-pyrazol-4-yl)-N-(4-(4-((dimethylamino)methyl)-4-fluoropiperidin-1-yl)-5-((1-methyl-1H-pyrazol-4-yl)ethynyl)pyridin-2-yl)pyrimidin-4-amine formate] | 0.1 | 0.4 | 8.6 | > 10000 | 0.03 | 1.3 | 4.2 | 34.1 | 2.3 | 6.5
